Reference: paper PMC12705226, “Lotusin A: a novel pyrrole terpenoid hydrid from lotus roots (Nelumbo nucifera Gaertn.)” (RSC Advances, 2025)
Like-named read-outs stand apart in the source and are kept apart here. Blank lines part the entries; values can stand above or below the compound they belong to.

Assays:
[1] = biological target: α-glucosidase (Saccharomyces cerevisiae, UniProt P38158); assay: biochemical
Method: The α-glucosidase inhibitory assay was performed using a somewhat modified method of Kurihara et al.[44] For every reaction, […] p-nitrophenyl-α-D-glucopyranoside, 50 mL of 0.1 U mL^−1, α-glucosidase in 0.01 M phosphate buffer (pH 7.0), […] of sample solution (various concentrations of compound 1 with 5, 10, 25, 50 µM) were mixed. The mixture was kept at 37 °C for 30 minutes and added with 0.1 M Na2CO3. Mixture after reaction will be measured at a wavelength of 401 nm. The IC50 values represented the inhibitor concentration that suppressed 50% of enzyme activity. […] All experiments were performed in triplicate. The percentage inhibition was calculated using the following equation: α-glucosidase inhibition (%) = (Ac − At)/Ac × 100, where Ac is the absorbance of control (α-glucosidase, without sample) and At is the absorbance of test samples (α-glucosidase, with sample). The experimental results were processed using the GraphPad Prism 8 software.

[2] = tested on: RAW264.7 cells; assay: Determination of NO production in LPS-treated RAW264.7 cells (Griess reagent); type: cell-based; details: for IC50: Mus musculus
Method: The production of nitric oxide (NO) was quantified by measuring the NO levels in cell culture supernatants using a previously method. In brief, RAW264.7 cells (ATCC, Rockville, MD, USA, 1 × 10^5 cells per well) were treated with 1 µg mL^−1 of LPS for 24 h, with and without the test compounds (1–100 µM). After incubation, the supernatant (100 µL) was mixed with 100 µL of Griess reagent. The viability of the remaining cells was assessed using an MTT-based colorimetric assay as described above.

[3] = tested on: six bacterial strains; assay: Antibacterial preliminary screening, text statements on all strains together; type: cell-based; details: concentration of 10 µM
Method: It is based on combined biological activities of reported pyrrole sesquiterpenes and available screening models in our lab, including those regarding anti-inflammatory activities, antibacterial activities, and inhibition of α-glucosidase. […] To further evaluate the biological potential of compounds 1–6, we examined their antibacterial activities through preliminary screening at a concentration of 10 µM. The assays were conducted against three Gram-positive bacterial strains (Staphylococcus aureus, Bacillus subtilis, and Micrococcus luteus) and three Gram-negative strains (Salmonella typhimurium, Escherichia coli, and Klebsiella pneumoniae). This comparative screening aimed to determine whether any of these compounds could inhibit bacterial growth under identical conditions by conducting further experiments.
The antibacterial activities of compounds 1–6 were evaluated in 96-well plates using a modified broth microdilution method previously reported by our group. The MIC of the isolated compounds was determined against Staphylococcus aureus, Bacillus subtilis, Micrococcus luteus, Salmonella typhimurium, Escherichia coli, and Klebsiella pneumonia. Bacterial strains were cultured on TSB (Tryptic Soy Broth) agar plates and incubated at 37 °C for 24 h. […]

[4] = tested on: Salmonella typhimurium; assay: MIC measurement (broth microdilution); type: cell-based; details: Gram-negative; screening at 10.0 µM
Method: (§1) The MIC of the isolated compounds was determined against Staphylococcus aureus, Bacillus subtilis, Micrococcus luteus, Salmonella typhimurium, Escherichia coli, and Klebsiella pneumonia. Bacterial strains were cultured on TSB (Tryptic Soy Broth) agar plates and incubated at 37 °C for 24 h. A single colony was transferred to Muller–Hinton broth (MHB), continuously incubated and harvested after 24 h at 37 °C and centrifuged at 250 rpm. The suspensions were adjusted to 0.5 McFarland standard, diluted to achieve a final concentration of approximately 5 × 10^5 CFU mL^−1 and added to each well. All compounds were dissolved in DMSO and dispensed into 96-well plates at a starting concentration of 10 µM. Kanamycin was used as a positive control.

[5] = tested on: Klebsiella pneumoniae; assay: MIC measurement (broth microdilution); type: cell-based; details: Gram-negative; screening at 10.0 µM
Method: as §1, with “The antibacterial activities of compounds 1–6 were evaluated in 96-well plates using a modified broth microdilution method previously reported by our group. The MIC” for “The MIC”

[6] = tested on: Escherichia coli; assay: MIC measurement (broth microdilution); type: cell-based; details: Gram-negative; screening at 10.0 µM
Method: as §1, with “The antibacterial activities of compounds 1–6 were evaluated in 96-well plates using a modified broth microdilution method previously reported by our group. The MIC” for “The MIC”

[7] = tested on: Staphylococcus aureus; assay: MIC measurement (broth microdilution); type: cell-based; details: Gram-positive; screening at 10.0 µM
Method: as §1, with “The antibacterial activities of compounds 1–6 were evaluated in 96-well plates using a modified broth microdilution method previously reported by our group. The MIC” for “The MIC”

[8] = tested on: Bacillus subtilis; assay: MIC measurement (broth microdilution); type: cell-based; details: Gram-positive; screening at 10.0 µM
Method: as §1, with “The antibacterial activities of compounds 1–6 were evaluated in 96-well plates using a modified broth microdilution method previously reported by our group. The MIC” for “The MIC”

[9] = tested on: Micrococcus luteus; assay: MIC measurement (broth microdilution); type: cell-based; details: Gram-positive; screening at 10.0 µM
Method: as §1, with “The antibacterial activities of compounds 1–6 were evaluated in 96-well plates using a modified broth microdilution method previously reported by our group. The MIC” for “The MIC”

[10] = RAW264.7, 24 h, read-out: NO production (IC50, µM)

Chain of α-glucosidase (P38158 whole entry): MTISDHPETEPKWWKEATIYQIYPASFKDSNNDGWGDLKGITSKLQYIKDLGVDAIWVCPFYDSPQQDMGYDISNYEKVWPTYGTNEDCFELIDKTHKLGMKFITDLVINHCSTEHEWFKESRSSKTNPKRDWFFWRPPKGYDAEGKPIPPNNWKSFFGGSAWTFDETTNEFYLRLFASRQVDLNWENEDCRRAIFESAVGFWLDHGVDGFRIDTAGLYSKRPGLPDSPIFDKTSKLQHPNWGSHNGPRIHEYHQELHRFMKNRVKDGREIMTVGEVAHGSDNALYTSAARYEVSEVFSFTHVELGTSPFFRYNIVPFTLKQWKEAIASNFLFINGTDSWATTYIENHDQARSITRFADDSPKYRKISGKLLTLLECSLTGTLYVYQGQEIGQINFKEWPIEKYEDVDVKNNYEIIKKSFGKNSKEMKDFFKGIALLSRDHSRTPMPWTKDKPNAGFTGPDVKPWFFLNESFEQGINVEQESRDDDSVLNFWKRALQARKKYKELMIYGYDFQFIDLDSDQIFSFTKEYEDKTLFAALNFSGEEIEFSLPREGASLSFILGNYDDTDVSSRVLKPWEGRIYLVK

Structure (SMILES): CC[C@H](CC[C@@H](C)[C@H]1CC[C@H]2[C@@H]3CCC4=CC(=O)CC[C@]4(C)[C@H]3CC[C@]12C)C(C)C (stereo in doubt) [Compound 3, stigmast-4-en-3-one]
IC50 [1]: > 50 µM

Structure (SMILES): CC1=C(O)C(=O)C=C2C1=CC=C1[C@@]2(C)CC[C@@]2(C)[C@@H]3C[C@](C)(C(=O)O)CC[C@]3(C)CC[C@]12C [Celastrol, reference compound]
IC50 ([2]; RAW264.7 cells, 1 µg mL^−1 LPS, 24 h, read-out: NO production (IC50)): 1.2 µM

Structure (SMILES): CO[C@@H](CC(=O)c1ccc[nH]1)C(N)=O [Compound 1, lotusin A]
IC50 [2, 10]: 21.5 ± 0.3 µM
IC50 ([1]; pH 7.0, 37 °C, 30 minutes, read-out: α-Glucosidase (IC50)): 18.2 ± 0.17 µM
inhibition of microbial growth [3]: no inhibition

Structure (SMILES): CC(C)CCCC(C)C1CCC2C3CCC4CC(O)CCC4(C)C3CCC12C (centres unmarked) [Compound 2, cholestanol]
IC50 [2, 10]: > 100 µM
NO production (IC50, µM) ([2]; RAW264.7 cells, 1 µg mL^−1 LPS, 24 h): did not show any activity
IC50 [1]: > 50 µM

Structure (SMILES): O=c1c(O)c(-c2ccc(O)c(O)c2)oc2cc(O)cc(O)c12 [Compound 4, quercetin]
IC50 [1]: > 50 µM

Structure (SMILES): COc1cc(-c2oc3cc(O)cc(O)c3c(=O)c2O)ccc1O [Compound 5, isorhamnetin]
IC50 [1]: > 50 µM

IC50 ([1]; pH 7.0, 37 °C, 30 minutes, class symbol, read-out: α-Glucosidase (IC50)): > 50 µM
Structure (SMILES): O=c1cc(-c2ccc(O)cc2O)oc2cc(O)cc(O)c12 [Compound 6, norartocarpetin]

MIC (10.0 µM) Salmonella typhimurium [4]: A.
MIC (10.0 µM) Klebsiella pneumoniae [5]: A.
MIC (10.0 µM) Escherichia coli [6]: A.
MIC (10.0 µM) Staphylococcus aureus [7]: A.
MIC (10.0 µM) Bacillus subtilis [8]: A.
MIC (10.0 µM) Micrococcus luteus [9]: A.
Structure (SMILES): NC[C@H]1O[C@H](O[C@H]2[C@H](O)[C@@H](O[C@H]3O[C@H](CO)[C@@H](O)[C@H](N)[C@H]3O)[C@H](N)C[C@@H]2N)[C@H](O)[C@@H](O)[C@@H]1O [Kanamycin]
